Reference: US11518823B2, “Photoinitiators for light-curable compositions” (priority 2017, dated 2022)
Values joined by “and” are separate entries in the source; they are usually repeats but may differ in a detail not shown here. Equal entries are not always repeated.

What was measured:
[1] = photo-DSC monitoring of photopolymerization in hexanediol diacrylate
Method: (§1) In the following examples, of the inventive use of compounds of formula (I) as photo-initiators, reaction mixtures containing the respective photoinitiator, the specified liquid monomer and optionally a specified co-intiator were produced and cured for 10 min under a nitrogen atmosphere by exposure to an OmniCure® S2000 mercury lamp having a wave length filter of 320 to 500 nm and an UV light intensity of 1 W/cm^2, while the progress of the reactions was monitored by photo-DSC type NETSCH DSC 204 F1 Phoenix.
(§2) All measurements were carried out at least twice, the respective tables showing the average values for the respective initiators.
(§3) In the tables, RP represents the polymerization rate and is thus an indicator of the reactivity of a system. A high value means that many monomer groups are reacted at the same time and that the curing process is generally shorter. tmax is the time (in s) it takes until maximum heat development is reached and is thus an indicator of how long it takes to reach the gelling point and thus a certain initial solidity. Short times are thus more desirable. t95% is the time (in s) after which 95% of the entire reaction heat have been released and is thus an indicator of the rate at which a reaction occurs, lower values again being advantageous. DBC is the double bond conversion rate calculated based on the reaction heat released during polymerization (in J per g) of the respective formulation. For the conversion rate, it is desirable to achieve values that are as high as possible.
(§4) In all formulations, the respective photoinitiator was used in an equimolar amount with respect to 1 wt % of ethyl pyruvate (1), which was the initiator having the lowest molecular weight, and weighed in accordingly, and co-initiators, if contained, were weighed in equimolar amounts with respect to the respective initiator. Subsequently, 12±0.5 mg of the reaction mixtures were weighed into DSC aluminum pans, and the pans were covered with cover glasses.

[2] = photo-DSC monitoring of photopolymerization in dental dimethacrylate mixture
Method: All measurements were carried out at least twice, the respective tables showing the average values for the respective initiators. In the tables, RP represents the polymerization rate and is thus an indicator of the reactivity of a system. A high value means that many monomer groups are reacted at the same time and that the curing process is generally shorter. tmax is the time (in s) it takes until maximum heat development is reached and is thus an indicator of how long it takes to reach the gelling point and thus a certain initial solidity. Short times are thus more desirable. t95% is the time (in s) after which 95% of the entire reaction heat have been released and is thus an indicator of the rate at which a reaction occurs, lower values again being advantageous. DBC is the double bond conversion rate calculated based on the reaction heat released during polymerization (in J per g) of the respective formulation. For the conversion rate, it is desirable to achieve values that are as high as possible. In all formulations, the respective photoinitiator was used in an equimolar amount with respect to 1 wt % of ethyl pyruvate (1), which was the initiator having the lowest molecular weight, and weighed in accordingly, and co-initiators, if contained, were weighed in equimolar amounts with respect to the respective initiator. […] In this group of experiments, the experiments from Examples 1 to 4 and Comparative Example 1 were repeated, using a di-methacrylate mixture from the field of dental engineering as a monomer instead of the diacrylate that had been used above.

[3] = photo-DSC monitoring of photopolymerization in divinyl adipate; conditions: monomer DVA, co-initiator DMAB
Method: In the following examples, of the inventive use of compounds of formula (I) as photo-initiators, reaction mixtures containing the respective photoinitiator, the specified liquid monomer and optionally a specified co-intiator were produced and cured for 10 min under a nitrogen atmosphere by exposure to an OmniCure® S2000 mercury lamp having a wave length filter of 320 to 500 nm and an UV light intensity of 1 W/cm^2, while the progress of the reactions was monitored by photo-DSC type […]1 Phoenix. All measurements were carried out at least twice, the respective tables showing the average values for the respective initiators. In the tables, RP represents the polymerization rate and is thus an indicator of the reactivity of a system. A high value means that many monomer groups are reacted at the same time and that the curing process is generally shorter. tmax is the time (in s) it takes until maximum heat development is reached and is thus an indicator of how long it takes to reach the gelling point and thus a certain initial solidity. Short times are thus more desirable. t95% is the time (in s) after which 95% of the entire reaction heat have been released and is thus an indicator of the rate at which a reaction occurs, lower values again being advantageous. DBC is the double bond conversion rate calculated based on the reaction heat released during polymerization (in J per g) of the respective formulation. For the conversion rate, it is desirable to achieve values that are as high as possible. In all formulations, the respective photoinitiator was used in an equimolar amount with respect to 1 wt % of ethyl pyruvate (1), which was the initiator having the lowest molecular weight, and weighed in accordingly, and co-initiators, if contained, were weighed in equimolar amounts with respect to the respective initiator. Subsequently, 12±0.5 mg of the reaction mixtures were weighed into DSC aluminum pans, and the pans were covered with cover glasses.

[4] = photo-DSC of hydrogel formulation with PEG700DA and 50 wt % water
Method: as §1, §2, §3, §4
(§5) PBQ was used as a commercially available reference initiator, with MDEA as a co-initiator. The ketoesters ethyl pyruvate (1) and dimethylfurandione (8) can be used as novel initiators without any co-initiator. Due to its longwave absorption maximum (λmax=378 nm instead of 330 nm for compound (1)), compound (8) can also be used using visible light which is harmless for cells.

[5] = tested on: mouse fibroblast cell line L929; assay type: cell-based
Source text: This may constitute an additional advantage for biological applications in which hydrogels are commonly used.

[6] = longwave absorption maximum; assay type: physicochemical
Source text: as §5

[7] = curing test in silicone mold, Intelli-Ray 400 W UV oven; conditions: 1 g HDDA with 1 wt % initiator, 100% power, after a few seconds
[8] = monomer HDDA, type I initiators, without any co-initiators (Table 5)
[9] = monomer HDDA, type I, without any co-initiators
[10] = acrylate (HDDA), co-initiator (Table 10, C8)
[11] = monomer HDDA, co-initiator DMAB
[12] = monomer HDDA, co-initiator MDEA
[13] = monomer HDDA, co-initiator shown only as drawing (Table 11)
[14] = monomer HDDA, co-initiator shown only as drawing (Table 13)
[15] = monomer HDDA, co-initiator shown only as drawing, reference is benzophenone/amine system (Table 11)
[16] = dental formulation DDM, co-initiator DMAB (Table 12)
[17] = methacrylates, co-initiator DMAB (Table 10)
[18] = monomer DDM, co-initiator DMAB (Table 7)
[19] = monomer HDDA, no co-initiator listed (Table 3)
[20] = monomer HDDA, co-initiator thiol
[21] = HDDA, without any co-initiator (Table 10)

With CC(C)(Br)C(=O)c1ccccc1 [BD, 2-bromo-2-methyl-1-phenylpropan-1-one, reference compound] the “RP (polymerization rate)” value [1, 8] was 146 mmol/L/s, the DBC [1, 9] was 57.6% and the t95% [1, 9] was 62.5 s.

In the case of O=C(c1ccccc1)c1ccccc1 [BP, Benzophenone, reference compound], the DBC [1, 10] is reported as 69%, the “RP (polymerization rate)” value [1, 10] is reported as 93 mmol/L/s and the t95% [1, 10] is reported as 69 s. The “DBC (double bond conversion)” value [1, 11] was 68.9%, the “RP (polymerization rate)” value [1, 11] was 96 mmol/L/s and the “t95% (time after which 95% of reaction heat released)” value [1, 11] was 85.5 s. For the same compound, the DBC [1, 12] was 69.3%, the “RP (polymerization rate)” value [1, 12] was 109 mmol/L/s and the t95% [1, 12] was 77.0 s. The DBC [1, 13] was 69%, the t95% [1, 13] was 69 s and the DBC [1, 14] was 69%. For the same compound, the “RP (polymerization rate)” value [1, 14] was 93 mmol/L/s, the t95% [1, 14] was 69 s and the “RP (polymerization rate)” value [1, 15] was 93 mmol/L/s. The DBC [2, 16] was 49%, the “RP (polymerization rate)” value [2, 16] was 21 mmol/L/s and the t95% [2, 16] was 143 s. For the same compound, the DBC [2, 17] was 49%, the “RP (polymerization rate)” value [2, 17] was 21 mmol/L/s and the t95% [2, 17] was 143 s. The DBC [2, 18] was 50%, the “RP (polymerization rate)” value [2, 18] was 21.4 mmol/L/s and the t95% [2, 18] was 146.5 s. For the same compound, the Area [3] was 642 J/g and the DSC [3] was 4.37 mW · mg^−1.

In the case of CN(C)CC(O)COc1ccc(C(=O)c2ccccc2)cc1.Cl (centres unmarked) [BPQ, 3-(4-benzoylphenoxy)-2-hydroxy-N,N-dimethylpropane-1-amine Hydrochloride, reference compound], the DBC ([4]; co-initiator MDEA) is reported as 50%, the “RP (polymerization rate)” value ([4]; co-initiator MDEA) is reported as 30 mmol/L/s and the t95% ([4]; co-initiator MDEA) is reported as 87 s. For the same compound, the “concentration at which significant toxic effects were observed” value [5] was 8000 µM.

With CCOC(=O)C(C)=O [Compound 1, 2-Oxopropanoic Acid Ethyl Ester] the “DBC (double bond conversion)” value [1, 11] was 66.5%, the “RP (polymerization rate)” value [1, 11] was 230 mmol/L/s and the “t95% (time after which 95% of reaction heat released)” value [1, 11] was 41.7 s. For the same compound, the DBC [1, 19] was 69.3%, the “RP (polymerization rate)” value [1, 19] was 210 mmol/L/s and the t95% [1, 19] was 56.0 s. For the same compound, the DBC [2, 18] was 57%, the “RP (polymerization rate)” value [2, 18] was 74.5 mmol/L/s and the t95% [2, 18] was 83.0 s. The Area [3] was 466 J/g, the DSC [3] was 1.7 mW · mg^−1 and the DBC ([4]; without co-initiator) was 48%. The “RP (polymerization rate)” value ([4]; without co-initiator) was 33 mmol/L/s, the t95% ([4]; without co-initiator) was 83 s and the “longwave absorption maximum λmax” value [6] was 330 nm.

For CCC(=O)C(=O)OC [Compound 2, 2-oxobutanoic Acid Methyl Ester], the “DBC (double bond conversion)” value [1, 11] was 60.9%, the “RP (polymerization rate)” value [1, 11] was 204 mmol/L/s and the “t95% (time after which 95% of reaction heat released)” value [1, 11] was 40.5 s. The DBC [2, 18] was 57%, the “RP (polymerization rate)” value [2, 18] was 71.2 mmol/L/s and the t95% [2, 18] was 85.5 s.

With CCOC(=O)C(=O)C(C)C [Compound 3, 2-oxo-3-Methylbutanoic Acid Ethyl Ester] the “DBC (double bond conversion)” value [1, 11] was 65.8%, the “t95% (time after which 95% of reaction heat released)” value [1, 11] was 36.6 s and the “RP (polymerization rate)” value ([1]; monomer HDDA, co-initiator DMAB, listed as E3) was 241 mmol/L/s and 241.0 mmol/L/s. For the same compound, the DBC [1, 12] was 65.2%, the “RP (polymerization rate)” value [1, 12] was 228 mmol/L/s and the t95% [1, 12] was 56.5 s. For the same compound, the “RP (polymerization rate)” value ([1]; monomer HDDA, co-initiator pentaerythritol-tetrakis(3-mercaptopropionate) (thiol)) was 233.5 mmol/L/s, the DBC [1, 20] was 68.0% and the t95% [1, 20] was 45.0 s. For the same compound, the DBC [2, 18] was 57%, the “RP (polymerization rate)” value [2, 18] was 81.5 mmol/L/s and the t95% [2, 18] was 58.5 s.

For COC(=O)C(=O)C(C)(C)C [Compound 4, 2-oxo-3,3-dimethylbutanoic Acid Methyl Ester], the “DBC (double bond conversion)” value [1, 11] was 59.1%, the “RP (polymerization rate)” value [1, 11] was 170 mmol/L/s and the “t95% (time after which 95% of reaction heat released)” value [1, 11] was 42.5 s. For the same compound, the DBC [1, 12] was 64.6%, the “RP (polymerization rate)” value [1, 12] was 234 mmol/L/s and the t95% [1, 12] was 41.0 s. For the same compound, the DBC [1, 19] was 64.6%, the “RP (polymerization rate)” value [1, 19] was 214 mmol/L/s and the t95% [1, 19] was 53.5 s. The DBC [2, 18] was 51%, the “RP (polymerization rate)” value [2, 18] was 55.9 mmol/L/s and the t95% [2, 18] was 69.5 s.

With CCOC(=O)C(=O)C(C)(C)Br [Compound 5, 3-bromo-3-methyl-2-oxobutanoic Acid Ethyl Ester] the “RP (polymerization rate)” value [1, 8] was 239 mmol/L/s, the DBC [1, 9] was 62.1% and the t95% [1, 9] was 40.0 s.

For CC1(C)COC(=O)C1=O [Compound 8, 4,4-dimethyldihydrofuran-2,3-dione], the DBC [1, 21] was 66%, the “RP (polymerization rate)” value [1, 21] was 189 mmol/L/s and the t95% [1, 21] was 58 s. The DBC [2, 17] was 54%, the “RP (polymerization rate)” value [2, 17] was 52 mmol/L/s and the t95% [2, 17] was 90 s. For the same compound, the DBC ([4]; without co-initiator) was 56%, the “RP (polymerization rate)” value ([4]; without co-initiator) was 26 mmol/L/s and the t95% ([4]; without co-initiator) was 78 s. For the same compound, the “longwave absorption maximum λmax” value [6] was 378 nm.

In the case of CCOC(=O)CCC(=O)C(=O)OCC [Compound 9, α-Ketoglutaric Acid Diethyl Ester], the DBC [1, 13] is reported as 67%, the t95% [1, 13] is reported as 58 s and the “RP (polymerization rate)” value [1, 15] is reported as 201 mmol/L/s. The DBC [2, 16] was 53%, the “RP (polymerization rate)” value [2, 16] was 66 mmol/L/s and the t95% [2, 16] was 85 s.

With CC(=O)C(=O)OCCN(C)C [Compound 10, N,N′-dimethylaminopyruvate] the “result of curing test” value [7] was “transparent, hard sample rod was obtained”.

With C=C(C)C(=O)OCCOC(=O)CCC(=O)C(=O)OCCOC(=O)C(=C)C [Compound 11, α-Ketoglutaric Acid di(hydroxyethylmethacrylate) Ester] the DBC [1, 13] was 64%, the t95% [1, 13] was 53 s and the “RP (polymerization rate)” value [1, 15] was 203 mmol/L/s. The DBC [2, 16] was 52%, the “RP (polymerization rate)” value [2, 16] was 57 mmol/L/s and the t95% [2, 16] was 93 s.

For CCOC(=O)C(=O)C(C)(C)O [Compound E5], the “DBC (double bond conversion)” value [1, 11] was 63.1%, the “RP (polymerization rate)” value [1, 11] was 218 mmol/L/s and the “t95% (time after which 95% of reaction heat released)” value [1, 11] was 73.0 s.

For CCOC(=O)C(=O)c1ccccc1 [PGO, Ethyl Phenylglyoxylate, reference compound], the DBC [1, 19] was 75.1%, the “RP (polymerization rate)” value [1, 19] was 204 mmol/L/s and the t95% [1, 19] was 63.0 s.
